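Following 48 hours of exposure in 96-well plates, responses at five concentrations were used to interpolate endpoints linearly. TGI denotes the concentration required for complete inhibition of growth.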
Tests used:
Assay in all cases: NCI tumour cell line growth inhibition, 48 h
OVCAR-8 ovarian = system: OVCAR-8 ovarian
HCC-2998 colon = system: HCC-2998 colon
NCI-H460 lung = system: NCI-H460 lung
LXFL 529 NSCLC = system: LXFL 529 NSCLC
SNB-75 CNS = system: SNB-75 CNS
TK-10 renal = system: TK-10 renal
MALME-3M melanoma = system: MALME-3M melanoma
NCI-H226 lung = system: NCI-H226 lung
SW-620 colon = system: SW-620 colon
SK-MEL-5 melanoma = system: SK-MEL-5 melanoma
ACHN renal = system: ACHN renal
SR leukemia = system: SR leukemia
NCI-H23 lung = system: NCI-H23 lung
CAKI-1 renal = system: CAKI-1 renal
SNB-19 CNS = system: SNB-19 CNS
NCI-H522 lung = system: NCI-H522 lung
DLD-1 colon = system: DLD-1 colon
SK-OV-3 ovarian = system: SK-OV-3 ovarian
XF 498 CNS = system: XF 498 CNS
A549 NSCLC = system: A549 NSCLC
HL-60(TB) leukemia = system: HL-60(TB) leukemia
OVCAR-4 ovarian = system: OVCAR-4 ovarian
DMS 114 small cell lung = system: DMS 114 small cell lung
M19-MEL melanoma = system: M19-MEL melanoma
SF-295 CNS = system: SF-295 CNS
HCT-116 colon = system: HCT-116 colon
DMS 273 small cell lung = system: DMS 273 small cell lung
LOX IMVI melanoma = system: LOX IMVI melanoma
UACC-257 melanoma = system: UACC-257 melanoma
RXF 393 renal = system: RXF 393 renal
SNB-78 CNS = system: SNB-78 CNS
K-562 leukemia = system: K-562 leukemia
HT29 colon = system: HT29 colon
HOP-18 NSCLC = system: HOP-18 NSCLC
HOP-92 NSCLC = system: HOP-92 NSCLC
RPMI-8226 leukemia = system: RPMI-8226 leukemia
OVCAR-5 ovarian = system: OVCAR-5 ovarian
SK-MEL-28 melanoma = system: SK-MEL-28 melanoma
U251 CNS = system: U251 CNS
SN12C renal = system: SN12C renal
SK-MEL-2 melanoma = system: SK-MEL-2 melanoma
HOP-62 NSCLC = system: HOP-62 NSCLC
EKVX NSCLC = system: EKVX NSCLC
CCRF-CEM leukemia = system: CCRF-CEM leukemia
UACC-62 melanoma = system: UACC-62 melanoma
HCT-15 colon = system: HCT-15 colon
MOLT-4 leukemia = system: MOLT-4 leukemia
OVCAR-3 ovarian = system: OVCAR-3 ovarian
KM20L2 colon = system: KM20L2 colon
UO-31 renal = system: UO-31 renal
SF-268 CNS = system: SF-268 CNS
KM12 colon = system: KM12 colon
M14 melanoma = system: M14 melanoma
SF-539 CNS = system: SF-539 CNS
786-0 renal = system: 786-0 renal
COLO 205 colon = system: COLO 205 colon

Which TGI (OVCAR-8 ovarian) does the source give for `Nc1ccc2ncc(NCc3ccc(F)cc3)nc2c1` here?
The TGI was > 100 µM.

And the TGI (HCC-2998 colon)?
Its TGI is > 100 µM.

What about the TGI (NCI-H460 lung) of the same molecule?
The TGI was > 100 µM.

What about the TGI (LXFL 529 NSCLC) of the same molecule?
Its TGI is > 100 µM.

What about the TGI (SNB-75 CNS) of the same molecule?
The TGI was > 100 µM.

What about the TGI (TK-10 renal) of the same molecule?
Its TGI is > 100 µM.

And the TGI (MALME-3M melanoma)?
Its TGI is > 100 µM.

And the TGI (NCI-H226 lung)?
The TGI was > 100 µM.

And the TGI (SW-620 colon)?
Its TGI is > 100 µM.

And the TGI (SK-MEL-5 melanoma)?
Its TGI is > 100 µM.

And the TGI (ACHN renal)?
Its TGI is > 100 µM.

And the TGI (SR leukemia)?
Its TGI is > 100 µM.

What about the TGI (NCI-H23 lung) of the same molecule?
Its TGI is > 100 µM.

What about the TGI (CAKI-1 renal) of the same molecule?
The TGI was > 100 µM.

And the TGI (SNB-19 CNS)?
Its TGI is > 100 µM.

And the TGI (NCI-H522 lung)?
The TGI was > 100 µM.

And the TGI (DLD-1 colon)?
The TGI was > 100 µM.

And the TGI (SK-OV-3 ovarian)?
Its TGI is > 100 µM.

What about the TGI (XF 498 CNS) of the same molecule?
Its TGI is 86.1 µM.

What about the TGI (A549 NSCLC) of the same molecule?
Its TGI is > 100 µM.

What about the TGI (HL-60(TB) leukemia) of the same molecule?
Its TGI is > 100 µM.

And the TGI (OVCAR-4 ovarian)?
The TGI was > 100 µM.

And the TGI (DMS 114 small cell lung)?
The TGI was > 100 µM.

And the TGI (M19-MEL melanoma)?
Its TGI is > 100 µM.

What about the TGI (SF-295 CNS) of the same molecule?
Its TGI is > 100 µM.

What about the TGI (HCT-116 colon) of the same molecule?
Its TGI is > 100 µM.

And the TGI (DMS 273 small cell lung)?
Its TGI is > 100 µM.

And the TGI (LOX IMVI melanoma)?
The TGI was > 100 µM.

And the TGI (UACC-257 melanoma)?
The TGI was > 100 µM.

And the TGI (RXF 393 renal)?
Its TGI is > 100 µM.

What about the TGI (SNB-78 CNS) of the same molecule?
Its TGI is > 100 µM.

What about the TGI (K-562 leukemia) of the same molecule?
The TGI was > 100 µM.

What about the TGI (HT29 colon) of the same molecule?
Its TGI is > 100 µM.

What about the TGI (HOP-18 NSCLC) of the same molecule?
The TGI was > 100 µM.

And the TGI (HOP-92 NSCLC)?
The TGI was > 100 µM.

And the TGI (RPMI-8226 leukemia)?
The TGI was > 100 µM.

What about the TGI (OVCAR-5 ovarian) of the same molecule?
Its TGI is > 100 µM.

What about the TGI (SK-MEL-28 melanoma) of the same molecule?
Its TGI is > 100 µM.

What about the TGI (U251 CNS) of the same molecule?
Its TGI is > 100 µM.

What about the TGI (SN12C renal) of the same molecule?
Its TGI is > 100 µM.

And the TGI (SK-MEL-2 melanoma)?
Its TGI is > 100 µM.

And the TGI (HOP-62 NSCLC)?
The TGI was > 100 µM.

And the TGI (EKVX NSCLC)?
Its TGI is > 100 µM.

And the TGI (CCRF-CEM leukemia)?
Its TGI is > 100 µM.

And the TGI (UACC-62 melanoma)?
The TGI was > 100 µM.

And the TGI (HCT-15 colon)?
The TGI was > 100 µM.

What about the TGI (MOLT-4 leukemia) of the same molecule?
Its TGI is > 100 µM.

What about the TGI (OVCAR-3 ovarian) of the same molecule?
Its TGI is > 100 µM.

And the TGI (KM20L2 colon)?
The TGI was > 100 µM.

And the TGI (UO-31 renal)?
Its TGI is > 100 µM.

What about the TGI (SF-268 CNS) of the same molecule?
Its TGI is > 100 µM.

What about the TGI (KM12 colon) of the same molecule?
Its TGI is > 100 µM.

What about the TGI (M14 melanoma) of the same molecule?
The TGI was > 100 µM.

And the TGI (SF-539 CNS)?
Its TGI is > 100 µM.

And the TGI (786-0 renal)?
The TGI was > 100 µM.

And the TGI (COLO 205 colon)?
The TGI was > 100 µM.

Reference: PubChem BioAssay (NCI)
